Measured values reported in ChEMBL document CHEMBL1909046, “DrugMatrix in vitro pharmacology data”.

What was measured:
[1] = molecular target: Beta-3 adrenergic receptor (Homo sapiens, UniProt P13945); test: DRUGMATRIX: Adrenergic beta3 radioligand binding (ligand: [125I] Cyanopindolol); assay type: cell membranes, HEK293, Membrane; settings: hek293; Not Active = under 50% inhibition at 10 µM
[2] = molecular target: 5-hydroxytryptamine receptor 4 (Cavia porcellus, UniProt O70528); assay type: cell membranes, Dunkin-Hartley, Striatum, Membrane; further: in other assays of this panel Not Active means under 50% inhibition at 10 µM
Chain of 5-hydroxytryptamine receptor 4 (O70528 whole entry): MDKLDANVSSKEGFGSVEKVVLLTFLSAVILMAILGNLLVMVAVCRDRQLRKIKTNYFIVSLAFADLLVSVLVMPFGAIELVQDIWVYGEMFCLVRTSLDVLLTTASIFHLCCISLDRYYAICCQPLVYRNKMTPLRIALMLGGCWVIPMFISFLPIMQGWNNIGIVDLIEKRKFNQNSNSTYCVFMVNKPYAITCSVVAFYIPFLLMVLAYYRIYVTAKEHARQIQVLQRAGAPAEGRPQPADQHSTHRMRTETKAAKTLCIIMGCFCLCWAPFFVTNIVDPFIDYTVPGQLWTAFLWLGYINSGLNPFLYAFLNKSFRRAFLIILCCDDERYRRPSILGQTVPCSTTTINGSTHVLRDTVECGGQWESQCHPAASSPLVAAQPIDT

[3] = DRUGMATRIX: Sigma2 radioligand binding (ligand: [3H] Ifenprodil); assay type: cell membranes, Rattus norvegicus, Wistar, Brain, Membrane; settings: Not Active = under 50% inhibition at 10 µM
[4] = molecular target: T1, Substance-K receptor (Homo sapiens, UniProt P21452); assay type: cell membranes, CHO, Membrane; settings: cho; further: in other assays of this panel Not Active means under 50% inhibition at 10 µM
T1 sequence (P21452 whole entry): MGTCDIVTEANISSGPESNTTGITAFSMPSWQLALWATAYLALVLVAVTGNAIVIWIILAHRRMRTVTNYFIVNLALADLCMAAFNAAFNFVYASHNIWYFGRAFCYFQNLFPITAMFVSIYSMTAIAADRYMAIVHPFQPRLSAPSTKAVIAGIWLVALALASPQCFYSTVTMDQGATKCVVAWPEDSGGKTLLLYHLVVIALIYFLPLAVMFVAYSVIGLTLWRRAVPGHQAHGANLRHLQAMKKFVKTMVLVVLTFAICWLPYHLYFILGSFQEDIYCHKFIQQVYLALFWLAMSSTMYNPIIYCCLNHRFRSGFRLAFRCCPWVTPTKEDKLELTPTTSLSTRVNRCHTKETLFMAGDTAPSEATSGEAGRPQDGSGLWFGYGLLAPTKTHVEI

[5] = molecular target: C-C chemokine receptor type 2 (Homo sapiens, UniProt P41597); assay type: cell membranes, CHO-K1, Membrane; settings: cho-k1; further: in other assays of this panel Not Active means under 50% inhibition at 10 µM
Chain of C-C chemokine receptor type 2 (P41597 whole entry): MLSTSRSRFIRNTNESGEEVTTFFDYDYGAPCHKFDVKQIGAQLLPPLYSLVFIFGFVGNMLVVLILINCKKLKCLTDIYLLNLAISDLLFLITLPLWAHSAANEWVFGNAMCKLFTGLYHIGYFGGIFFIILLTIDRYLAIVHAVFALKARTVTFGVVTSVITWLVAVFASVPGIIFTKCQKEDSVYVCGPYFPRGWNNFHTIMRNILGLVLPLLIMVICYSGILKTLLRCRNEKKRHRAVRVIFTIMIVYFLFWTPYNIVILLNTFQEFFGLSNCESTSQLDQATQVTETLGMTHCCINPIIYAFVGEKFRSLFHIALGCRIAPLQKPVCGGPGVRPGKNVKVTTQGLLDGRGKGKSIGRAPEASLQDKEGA

[6] = molecular target: T2, C-C chemokine receptor type 4 (Homo sapiens, UniProt P51679); assay type: cell membranes, Membrane; settings: chem-1; further: in other assays of this panel Not Active means under 50% inhibition at 10 µM
T2 sequence (P51679 whole entry): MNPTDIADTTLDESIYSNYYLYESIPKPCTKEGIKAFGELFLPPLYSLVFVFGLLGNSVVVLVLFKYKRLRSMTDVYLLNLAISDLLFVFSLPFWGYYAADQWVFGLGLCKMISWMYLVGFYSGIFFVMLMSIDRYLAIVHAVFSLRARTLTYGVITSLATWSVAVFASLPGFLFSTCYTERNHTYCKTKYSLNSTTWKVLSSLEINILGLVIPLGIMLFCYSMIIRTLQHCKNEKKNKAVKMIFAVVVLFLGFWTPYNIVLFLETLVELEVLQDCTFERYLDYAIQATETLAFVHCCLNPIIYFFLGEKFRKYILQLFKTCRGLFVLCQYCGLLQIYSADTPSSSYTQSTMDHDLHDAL

[7] = molecular target: T3, D(4) dopamine receptor (Homo sapiens, UniProt P21917); test: DRUGMATRIX: Dopamine D4.2 radioligand binding (ligand: [3H] Spiperone); assay type: cell membranes, CHO-K1, Membrane; settings: cho-k1; Not Active = under 50% inhibition at 10 µM
T3 sequence (P21917 whole entry): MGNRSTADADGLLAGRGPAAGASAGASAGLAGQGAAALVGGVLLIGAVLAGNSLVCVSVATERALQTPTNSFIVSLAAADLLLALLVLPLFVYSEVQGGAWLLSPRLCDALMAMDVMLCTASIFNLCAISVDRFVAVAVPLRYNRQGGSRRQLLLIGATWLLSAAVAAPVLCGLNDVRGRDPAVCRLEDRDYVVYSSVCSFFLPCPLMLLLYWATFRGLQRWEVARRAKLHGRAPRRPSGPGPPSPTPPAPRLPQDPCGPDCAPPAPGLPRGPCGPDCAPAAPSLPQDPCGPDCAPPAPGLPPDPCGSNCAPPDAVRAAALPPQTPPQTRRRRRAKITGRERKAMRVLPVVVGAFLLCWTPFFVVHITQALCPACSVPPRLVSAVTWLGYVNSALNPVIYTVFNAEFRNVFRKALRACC

[8] = molecular target: Sodium-dependent dopamine transporter (Homo sapiens, UniProt Q01959); test: DRUGMATRIX: Dopamine Transporter radioligand binding (ligand: [125I] RTI-55); assay type: cell membranes, CHO-K1, Membrane; settings: cho-k1; Not Active = under 50% inhibition at 10 µM
Chain of Sodium-dependent dopamine transporter (Q01959 whole entry): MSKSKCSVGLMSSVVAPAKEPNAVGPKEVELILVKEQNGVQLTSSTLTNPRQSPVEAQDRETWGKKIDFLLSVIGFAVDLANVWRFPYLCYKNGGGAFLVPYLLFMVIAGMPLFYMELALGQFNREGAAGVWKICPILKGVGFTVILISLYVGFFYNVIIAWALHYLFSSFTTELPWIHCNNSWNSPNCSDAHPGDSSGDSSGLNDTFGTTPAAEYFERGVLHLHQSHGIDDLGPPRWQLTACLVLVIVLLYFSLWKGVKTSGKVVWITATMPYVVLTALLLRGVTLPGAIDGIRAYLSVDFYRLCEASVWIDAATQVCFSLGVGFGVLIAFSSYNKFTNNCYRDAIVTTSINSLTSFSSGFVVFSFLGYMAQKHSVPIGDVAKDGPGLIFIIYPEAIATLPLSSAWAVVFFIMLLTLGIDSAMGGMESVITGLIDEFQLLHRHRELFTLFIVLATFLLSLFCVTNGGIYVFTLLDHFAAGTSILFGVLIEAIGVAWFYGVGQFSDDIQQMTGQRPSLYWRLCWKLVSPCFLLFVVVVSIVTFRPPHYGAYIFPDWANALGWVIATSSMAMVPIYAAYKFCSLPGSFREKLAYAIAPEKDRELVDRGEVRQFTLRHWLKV

[9] = DRUGMATRIX: Glutamate, Kainate radioligand binding (ligand: [3H] Kainic acid); assay type: cell membranes, Rattus norvegicus, Wistar, Brain, Membrane; settings: Not Active = under 50% inhibition at 10 µM
[10] = DRUGMATRIX: Glutamate, NMDA, Phencyclidine radioligand binding (ligand: [3H] TCP); assay type: cell membranes, Rattus norvegicus, Wistar, Cerebral cortex, Membrane; settings: Not Active = under 50% inhibition at 10 µM
[11] = molecular target: Histamine H2 receptor (Homo sapiens, UniProt P25021); assay type: cell membranes, CHO-K1, Membrane; settings: cho-k1; further: in other assays of this panel Not Active means under 50% inhibition at 10 µM
Chain of Histamine H2 receptor (P25021 whole entry): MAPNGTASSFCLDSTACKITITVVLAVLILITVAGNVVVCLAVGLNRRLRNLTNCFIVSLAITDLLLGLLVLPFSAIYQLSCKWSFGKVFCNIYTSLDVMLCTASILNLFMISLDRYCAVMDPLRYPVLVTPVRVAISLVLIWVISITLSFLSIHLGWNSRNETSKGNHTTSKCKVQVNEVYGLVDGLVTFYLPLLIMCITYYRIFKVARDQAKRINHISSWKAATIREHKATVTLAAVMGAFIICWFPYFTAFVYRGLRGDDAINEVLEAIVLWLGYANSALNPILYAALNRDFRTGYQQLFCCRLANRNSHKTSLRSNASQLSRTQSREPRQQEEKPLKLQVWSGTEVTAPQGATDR

[12] = molecular target: T4, Leukotriene C4 synthase (Cavia porcellus, UniProt A6XA80); test: biochemical; assay type: tissue-based, Lung
T4 sequence (A6XA80 whole entry): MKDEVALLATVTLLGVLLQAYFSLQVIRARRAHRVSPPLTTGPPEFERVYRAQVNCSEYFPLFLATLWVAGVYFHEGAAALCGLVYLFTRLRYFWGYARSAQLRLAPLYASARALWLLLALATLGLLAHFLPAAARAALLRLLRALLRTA

[13] = molecular target: T5, Muscarinic acetylcholine receptor M4 (Homo sapiens, UniProt P08173); assay type: cell membranes, CHO-K1, Membrane; settings: cho-k1; further: in other assays of this panel Not Active means under 50% inhibition at 10 µM
T5 sequence (P08173 whole entry): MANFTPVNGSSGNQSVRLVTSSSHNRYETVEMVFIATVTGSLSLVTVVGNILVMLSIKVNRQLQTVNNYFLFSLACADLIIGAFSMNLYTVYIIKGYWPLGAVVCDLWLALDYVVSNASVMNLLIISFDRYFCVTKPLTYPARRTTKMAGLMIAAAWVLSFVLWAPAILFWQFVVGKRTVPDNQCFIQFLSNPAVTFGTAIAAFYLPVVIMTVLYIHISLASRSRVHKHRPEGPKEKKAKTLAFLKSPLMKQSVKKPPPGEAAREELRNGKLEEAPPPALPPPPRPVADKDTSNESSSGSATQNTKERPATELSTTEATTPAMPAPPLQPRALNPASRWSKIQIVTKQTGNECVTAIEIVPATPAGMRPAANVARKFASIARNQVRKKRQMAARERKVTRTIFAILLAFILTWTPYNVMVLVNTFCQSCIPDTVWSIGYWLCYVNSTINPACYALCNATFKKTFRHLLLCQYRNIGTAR

[14] = DRUGMATRIX: Phosphodiesterase PDE3 enzyme inhibition (substrate: [3H]cAMP + cAMP); assay type: tissue-based, Homo sapiens; settings: platelet; Not Active = under 50% inhibition at 10 µM
[15] = molecular target: Tyrosine-protein kinase Fyn (Homo sapiens, UniProt P06241); test: biochemical; assay type: cell-based, Insect cells; settings: insect cells
Chain of Tyrosine-protein kinase Fyn (P06241 whole entry): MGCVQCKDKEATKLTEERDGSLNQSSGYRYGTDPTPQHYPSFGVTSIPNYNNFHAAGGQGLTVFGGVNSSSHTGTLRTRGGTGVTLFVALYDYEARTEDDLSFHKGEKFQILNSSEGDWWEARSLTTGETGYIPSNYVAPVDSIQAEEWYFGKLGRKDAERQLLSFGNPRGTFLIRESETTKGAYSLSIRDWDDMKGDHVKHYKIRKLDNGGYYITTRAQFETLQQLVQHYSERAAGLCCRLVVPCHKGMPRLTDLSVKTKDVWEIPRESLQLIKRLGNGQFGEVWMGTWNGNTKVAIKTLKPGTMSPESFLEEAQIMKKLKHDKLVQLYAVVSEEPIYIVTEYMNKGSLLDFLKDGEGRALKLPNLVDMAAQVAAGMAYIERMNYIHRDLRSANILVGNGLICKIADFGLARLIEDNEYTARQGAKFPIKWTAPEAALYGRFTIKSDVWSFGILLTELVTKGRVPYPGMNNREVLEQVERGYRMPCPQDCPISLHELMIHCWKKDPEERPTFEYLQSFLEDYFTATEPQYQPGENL

[16] = DRUGMATRIX: Purinergic P2X radioligand binding (ligand: [3H] alpha, beta-Methylene-ATP); assay type: cell membranes, Oryctolagus cuniculus, New Zealand albino, Urinary bladder, Membrane; settings: Not Active = under 50% inhibition at 10 µM
[17] = molecular target: Cytochrome P450 2C19 (Homo sapiens, UniProt P33261); settings: bti-tn-5b1-4; further: in other assays of this panel Not Active means under 50% inhibition at 10 µM
Chain of Cytochrome P450 2C19 (P33261 whole entry): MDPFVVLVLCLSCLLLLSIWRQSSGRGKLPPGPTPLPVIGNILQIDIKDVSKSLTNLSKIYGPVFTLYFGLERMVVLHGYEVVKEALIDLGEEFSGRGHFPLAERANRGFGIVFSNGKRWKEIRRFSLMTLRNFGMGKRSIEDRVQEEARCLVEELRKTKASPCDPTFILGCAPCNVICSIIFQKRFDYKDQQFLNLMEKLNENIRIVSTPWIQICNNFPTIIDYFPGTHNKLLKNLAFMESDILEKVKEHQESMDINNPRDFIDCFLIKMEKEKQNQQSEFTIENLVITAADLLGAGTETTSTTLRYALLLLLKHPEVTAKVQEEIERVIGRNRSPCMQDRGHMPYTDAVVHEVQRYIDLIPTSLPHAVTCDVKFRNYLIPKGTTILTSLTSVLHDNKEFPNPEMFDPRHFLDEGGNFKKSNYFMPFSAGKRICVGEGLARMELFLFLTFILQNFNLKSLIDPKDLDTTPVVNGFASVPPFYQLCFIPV

Chain of Beta-3 adrenergic receptor (P13945 whole entry): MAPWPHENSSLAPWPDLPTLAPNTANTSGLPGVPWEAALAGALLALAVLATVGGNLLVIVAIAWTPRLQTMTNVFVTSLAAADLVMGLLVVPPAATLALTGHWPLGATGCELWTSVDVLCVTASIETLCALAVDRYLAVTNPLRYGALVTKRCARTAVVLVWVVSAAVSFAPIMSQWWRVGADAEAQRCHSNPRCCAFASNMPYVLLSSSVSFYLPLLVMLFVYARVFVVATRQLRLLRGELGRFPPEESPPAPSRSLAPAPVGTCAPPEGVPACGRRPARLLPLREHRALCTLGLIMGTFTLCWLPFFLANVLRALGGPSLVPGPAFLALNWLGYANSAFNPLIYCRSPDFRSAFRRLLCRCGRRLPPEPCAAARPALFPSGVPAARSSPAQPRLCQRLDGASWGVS

CC1(C)S[C@@H]2[C@H](NC(=O)[C@H](N)c3ccc(O)cc3)C(=O)N2[C@H]1C(=O)O [AMOXICILLIN]
Not Active: IC50 [1] | IC50 [2] | IC50 [3] | Ki [3] | IC50 [4] | IC50 [5] | IC50 [6] | IC50 [7] | IC50 [8] | IC50 [9] | Ki [9] | IC50 [10] | Ki [10] | IC50 [11] | IC50 [12] | IC50 [13] | IC50 [14] | Ki [14] | IC50 [15] | IC50 [16] | Ki [16] | IC50 [17] | Ki [17]

CCOC(=O)OC(C)OC1=C(C(=O)Nc2ccccn2)N(C)S(=O)(=O)c2ccccc21 (configuration not stated) [AMPIROXICAM]
Not Active: IC50 [1] | IC50 [2] | IC50 [3] | Ki [3] | IC50 [4] | IC50 [5] | IC50 [6] | IC50 [7] | IC50 [8] | IC50 [9] | Ki [9] | IC50 [10] | Ki [10] | IC50 [11] | IC50 [12] | IC50 [13] | IC50 [14] | Ki [14] | IC50 [15] | IC50 [16] | Ki [16] | IC50 [17] | Ki [17]

N#C[C@H](O[C@@H]1O[C@H](CO[C@@H]2O[C@H](CO)[C@@H](O)[C@H](O)[C@H]2O)[C@@H](O)[C@H](O)[C@H]1O)c1ccccc1 [AMYGDALIN]
Not Active: IC50 [1] | IC50 [2] | IC50 [3] | Ki [3] | IC50 [4] | IC50 [5] | IC50 [6] | IC50 [7] | IC50 [8] | IC50 [9] | Ki [9] | IC50 [10] | Ki [10] | IC50 [11] | IC50 [12] | IC50 [13] | IC50 [14] | Ki [14] | IC50 [15] | IC50 [16] | Ki [16] | IC50 [17] | Ki [17]

N=C(N)NCCCCNC(=N)N.O=S(=O)(O)O [ARCAINE SULFATE]
Not Active: IC50 [1] | IC50 [2] | IC50 [3] | Ki [3] | IC50 [4] | IC50 [5] | IC50 [6] | IC50 [7] | IC50 [8] | IC50 [9] | Ki [9] | IC50 [10] | Ki [10] | IC50 [11] | IC50 [12] | IC50 [13] | IC50 [14] | Ki [14] | IC50 [15] | IC50 [16] | Ki [16] | IC50 [17] | Ki [17]
